Tested on: imiquimod-induced psoriasis
Assay: Imiquimod-induced psoriasis (Th17 inflammation) model in mice, topical treatment once daily D7-D13: PASI, modified PASI, body weight, use of enrichment, TEWL
Assay type: in vivo
Parameters: key to Mean score use enrichment: 0 = no use of dental rolls to 4 = use of all 4; key to PASI Mean score values: sum of erythema, induration, peeling scores, each 0-3 (0 = none)
Settings: imiquimod-induced mice
Protocol: Thirty-six (36) female Balb/c mice are weighed and randomly divided into 9 groups (n=4) according to body weight on D1. For mice of native group 1 and tolerance groups 8 and 9, no induction of psoriasis is performed between D1 and D13. Psoriasis is induced in groups 2 to 7 by once daily topical application for 13 days (from day 1 to day 13) of 65 mg of Aldara™ cream (5.0% imiquimod) onto the shaved and epilated back of mice. Before the first treatment, a second randomization of mice of the 6 imiquimod-induced psoriasis groups is performed according to the severity of psoriasis (PASI), and also the body weight of mice. Starting on day 7 and until day 13, 100 mg of test formulations […] and 65 mg of vehicle (groups 1 and […]) are topically administered once daily for 7 consecutive days onto the shaved back skin of mice. Several measurements are taken during treatment period from day 7 to day 14: psoriasis index (PASI), body weight, use of enrichment and mortality. At the end of treatment period, TEWL is assessed, and blood and skin samples are collected. Histological analysis of skin samples is used for microscopic scoring of psoriasis and the determination of the thickness of parakeratosis and epidermis and blood analysis is used for assessing the level of proinflammatory biomarkers (cytokines assays). The effect of treatment of psoriasis induced mice with BETi formulations at the four dose levels are compared with Dermoval® cream containing 0.05% clobetasol propionate (reference) and vehicle (positive control) and also with healthy mice treated with vehicle (negative control).
PASI scoring takes into account the following 3 parameters: the presence of erythema on the skin, induration of the skin (thickening) and peeling of the skin at the area of the induction of psoriasis.
The presence of erythema on the skin at the area of induction of psoriasis with the following scoring grid: • 0=no or no more erythema on the skin, • 1=weak erythema on the skin, • 2=moderate erythema on the skin, • 3=important erythema on the skin.
The presence of induration of the skin at the area of induction of psoriasis with the following scoring grid: • 0=no or no more induration of the skin, • 1=weak induration of the skin, • 2=moderate induration of the skin, • 3=important induration of the skin.
The presence of peeling of the skin at the area of induction of psoriasis with the following scoring grid: • 0=no or no more dryness/peeling of the skin, • 1=weak dryness/peeling of the skin, • 2=moderate dryness/peeling of the skin, • 3=important dryness/peeling of the skin.
The sum of the mean scores of these 3 parameters result in the mean PASI score.
One of the issues with a steroid is that it causes skin thinning and continues to have an effect on no longer inflamed skin and the model set up and measurements above are not designed to reflect this negative effect. Therefore, a modified PASI (mPASI) is calculated in the same the manner as mean PASI score but excludes the scoring for induration (thickening of the skin).
Mice are weighed three times during the week of D1 to D7, and then daily during the week of D7 to D13, as well as on the day D14 when they are sacrificed. It should be noted that a characteristic body weight loss of mice is observed after the start of the induction of psoriasis, mainly during the first days following it. The body weight loss can reach between 10 to 15%.
For the duration of the experiment, dental rolls are used as enrichment and placed in each cage and replaced twice. Between D1 and D7, the number of dental rolls used by animals are determined twice in the morning, and are determined daily during D7 to D14, at the time of PASI or the tolerance assessment. The use of dental rolls is scored from 0=no use of dental rolls to 4=use of the 4 dental rolls. In the case where only half of a dental roll is used, a score of 0.5 is assigned. […]

## Cn1cc(-c2cccc(O)c2Oc2ccccc2)c2cc[nH]c2c1=O [BETi1]
D 2, listed as BETI1 0.1%
  Modified PASI Mean score values: 0.50
  PASI Mean score values: 0.50
D 2, listed as BETI1 1.0%
  Modified PASI Mean score values: 1.00
  PASI Mean score values: 1.00
D 2, listed as BETi 0.001%
  Mean score use enrichment: 0.25
D 2, listed as BETi 0.01%
  Mean score use enrichment: 0.50
D 2, listed as BETi 0.1%
  Mean score use enrichment: 0.75
D 2, listed as BETi1 0.001%
  Modified PASI Mean score values: 1.00
  PASI Mean score values: 1.25
D 2, listed as BETi1 0.01%
  Modified PASI Mean score values: 0.25
  PASI Mean score values: 0.25
D 2, listed as BETi 1.0%
  Mean score use enrichment: 0.75
D 3, listed as BETI1 0.1%
  Modified PASI Mean score values: 1.25
  PASI Mean score values: 1.25
D 3, listed as BETI1 1.0%
  Modified PASI Mean score values: 1.25
  PASI Mean score values: 1.25
D 3, listed as BETi 0.001%
  Mean score use enrichment: 0.75
D 3, listed as BETi 0.01%
  Mean score use enrichment: 0.50
D 3, listed as BETi 0.1%
  Mean score use enrichment: 1.25
D 3, listed as BETi1 0.001%
  Modified PASI Mean score values: 1.00
  PASI Mean score values: 1.00
D 3, listed as BETi1 0.01%
  Modified PASI Mean score values: 1.25
  PASI Mean score values: 1.25
D 3, listed as BETi 1.0%
  Mean score use enrichment: 1.00
D 4
  Modified PASI Mean score values: 2.75
D 4, listed as BETI1 0.1%
  PASI Mean score values: 3.00
D 4, listed as BETI1 1.0%
  PASI Mean score values: 3.25
D 4, listed as BETi 0.001%
  Mean score use enrichment: 1.00
D 4, listed as BETi 0.01%
  Mean score use enrichment: 0.75
D 4, listed as BETi 0.1%
  Mean score use enrichment: 1.25
D 4, listed as BETi1 0.001%
  PASI Mean score values: 3.25
D 4, listed as BETi1 0.01%
  PASI Mean score values: 3.25
D 4, listed as BETi 1.0%
  Mean score use enrichment: 1.00
D 5, listed as BETI1 0.1%
  Modified PASI Mean score values: 4.50
  PASI Mean score values: 5.75
D 5, listed as BETI1 1.0%
  Modified PASI Mean score values: 4.00
  PASI Mean score values: 5.50
D 5, listed as BETi 0.001%
  Mean score use enrichment: 1.25
D 5, listed as BETi 0.01%
  Mean score use enrichment: 0.75
D 5, listed as BETi 0.1%
  Mean score use enrichment: 0.50
D 5, listed as BETi1 0.001%
  Modified PASI Mean score values: 4.00
  PASI Mean score values: 5.00
D 5, listed as BETi1 0.01%
  Modified PASI Mean score values: 4.00
  PASI Mean score values: 5.25
D 5, listed as BETi 1.0%
  Mean score use enrichment: 1.50
D 6, listed as BETI1 0.1%
  Modified PASI Mean score values: 4.50
  PASI Mean score values: 7.00
D 6, listed as BETI1 1.0%
  Modified PASI Mean score values: 4.75
  PASI Mean score values: 7.25
D 6, listed as BETi 0.001%
  Mean score use enrichment: 1.25
D 6, listed as BETi 0.01%
  Mean score use enrichment: 1.25
D 6, listed as BETi 0.1%
  Mean score use enrichment: 0.75
D 6, listed as BETi1 0.001%
  Modified PASI Mean score values: 4.75
  PASI Mean score values: 7.25
D 6, listed as BETi1 0.01%
  Modified PASI Mean score values: 4.75
  PASI Mean score values: 7.00
D 6, listed as BETi 1.0%
  Mean score use enrichment: 1.50

— patent US20250339409A1, “USES OF PAN BET INHIBITORS” (VYNE THERAPEUTICS INC., priority 2021, published 2025)
